pIC50: −log10 of the molar value.
System: 931267-113-T-J1-PDC KRAS spheroid with HUVEC/MSC, viability
Test: Anticancer human tumor 931267-113-T-J1-PDC patient-derived colon adenocarcinoma cell line growth inhibition [KRAS2]
Conditions: for pIC50: curve of first compound; for viability, T/C: stronger effect = lower value; active means viability on the fitted dose curve at most 10% of control; inactive means the rest
Outline: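 KRAS-mutant tumor cells were grown as spheroids with HUVEC endothelial cells and human MSCs as stroma. Targeted agents were tested alone and with KRAS pathway inhibitors. Doses started at or near clinical Cmax, or 10 microM, descending half-log.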

[1] = second compound 0.1 µM, first compound 0.000316 µM
[2] = second compound 0.1 µM, first compound 0.001 µM
[3] = second compound 0.1 µM, first compound 0.00316 µM
[4] = second compound 0.1 µM, first compound 0.01 µM
[5] = second compound 0.1 µM, first compound 0.0316 µM
[6] = second compound 0.316 µM, first compound 0.000316 µM
[7] = second compound 0.316 µM, first compound 0.001 µM
[8] = second compound 0.316 µM, first compound 0.00316 µM
[9] = second compound 0.316 µM, first compound 0.01 µM
[10] = second compound 0.316 µM, first compound 0.0316 µM
[11] = second compound 1 µM, first compound 0.000316 µM
[12] = second compound 1 µM, first compound 0.001 µM
[13] = second compound 1 µM, first compound 0.00316 µM
[14] = second compound 1 µM, first compound 0.01 µM
[15] = second compound 1 µM, first compound 0.0316 µM
[16] = second compound 3.16 µM, first compound 0.000316 µM
[17] = second compound 3.16 µM, first compound 0.001 µM
[18] = second compound 3.16 µM, first compound 0.00316 µM
[19] = second compound 3.16 µM, first compound 0.01 µM
[20] = second compound 3.16 µM, first compound 0.0316 µM
[21] = second compound 10 µM, first compound 0.000316 µM
[22] = second compound 10 µM, first compound 0.001 µM
[23] = second compound 10 µM, first compound 0.00316 µM
[24] = second compound 10 µM, first compound 0.01 µM
[25] = second compound 10 µM, first compound 0.0316 µM
[26] = second compound 0.1 µM, first compound 0.1 µM
[27] = second compound 0.316 µM, first compound 0.1 µM
[28] = second compound 1 µM, first compound 0.1 µM
[29] = second compound 3.16 µM, first compound 0.1 µM
[30] = second compound 10 µM, first compound 0.1 µM
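Further: compound exposure lasted 7 days before the readout.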
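Wherever viability, T/C is given: 100% = DMSO vehicle control viability.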

CC(=O)Nc1cccc(-n2c(=O)n(C3CC3)c(=O)c3c(Nc4ccc(I)cc4F)n(C)c(=O)c(C)c32)c1 + CNCc1ccccc1-c1csc(C(C)Nc2nc(C)nc3cc(OC)c(OC)cc23)c1
> 10.00: pIC50 (second compound 1 µM) | pIC50 (second compound 3.16 µM) | pIC50 (second compound 10 µM)
8.04: pIC50 (second compound 0.1 µM)
active: viability, T/C [12] 1.23% | viability, T/C [13] 10.3% | viability, T/C [14] 2.02% | viability, T/C [15] 1.26% | viability, T/C (second compound 3.16 µM, first compound 0.0001 µM) 1.06% | viability, T/C [16] 0.32% | viability, T/C [17] 0.34% | viability, T/C [18] 0.19% | viability, T/C [19] 0.19% | viability, T/C [20] 0.41% | viability, T/C (second compound 10 µM, first compound 0.0001 µM) 0.57% | viability, T/C [21] 0.16% | viability, T/C [22] 0.14% | viability, T/C [23] 0.13% | viability, T/C [24] 0.15% | viability, T/C [25] 2.55%
8.17: pIC50 (second compound 0.316 µM)
inactive: viability, T/C (second compound 0.1 µM, first compound 0.0001 µM) 86.5% | viability, T/C [1] 89.1% | viability, T/C [2] 75.8% | viability, T/C [3] 59.7% | viability, T/C [4] 56% | viability, T/C [5] 14.1% | viability, T/C (second compound 0.316 µM, first compound 0.0001 µM) 91.8% | viability, T/C [6] 111% | viability, T/C [7] 83.3% | viability, T/C [8] 60.8% | viability, T/C [9] 47.8% | viability, T/C [10] 25.3% | viability, T/C (second compound 1 µM, first compound 0.0001 µM) 50.4% | viability, T/C [11] 17%

CN(C)C/C=C/C(=O)Nc1cc2c(Nc3ccc(F)c(Cl)c3)ncnc2cc1O[C@H]1CCOC1 + CNCc1ccccc1-c1csc(C(C)Nc2nc(C)nc3cc(OC)c(OC)cc23)c1
inactive: viability, T/C [1] 88% | viability, T/C [2] 80.3% | viability, T/C [3] 90.3% | viability, T/C [4] 97.7% | viability, T/C [5] 78% | viability, T/C [26] 88% | viability, T/C [6] 114% | viability, T/C [7] 104% | viability, T/C [8] 106% | viability, T/C [9] 76.7% | viability, T/C [10] 78.4% | viability, T/C [27] 79.8% | viability, T/C [11] 69.9% | viability, T/C [12] 12.7% | viability, T/C [13] 16.5% | viability, T/C [14] 21.8% | viability, T/C [15] 33.7% | viability, T/C [28] 1.43% | viability, T/C [16] 94.4% | viability, T/C [17] 108% | viability, T/C [18] 0.36% | viability, T/C [19] 0.29% | viability, T/C [20] 68.5% | viability, T/C [29] 0.32%
< 7.00: pIC50 (second compound 0.1 µM) | pIC50 (second compound 0.316 µM)
8.69: pIC50 (second compound 3.16 µM)
active: viability, T/C [21] 0.23% | viability, T/C [22] 0.22% | viability, T/C [23] 0.24% | viability, T/C [24] 0.45% | viability, T/C [25] 0.17% | viability, T/C [30] 0.22%
9.31: pIC50 (second compound 1 µM)
> 9.50: pIC50 (second compound 10 µM)

COC(=O)c1ccc2c(C(=Nc3ccc(N(C)C(=O)CN4CCN(C)CC4)cc3)c3ccccc3)c(O)[nH]c2c1 + CNCc1ccccc1-c1csc(C(C)Nc2nc(C)nc3cc(OC)c(OC)cc23)c1
6.45: pIC50 (second compound 0.316 µM)
> 7.50: pIC50 (second compound 3.16 µM) | pIC50 (second compound 10 µM)
inactive: viability, T/C [5] 65.7% | viability, T/C [26] 81% | viability, T/C (second compound 0.1 µM, first compound 0.316 µM) 58% | viability, T/C (second compound 0.1 µM, first compound 1 µM) 31% | viability, T/C [10] 76.5% | viability, T/C [27] 86.1% | viability, T/C (second compound 0.316 µM, first compound 0.316 µM) 55.6% | viability, T/C [15] 84.5% | viability, T/C [28] 99.3% | viability, T/C (second compound 1 µM, first compound 0.316 µM) 72%
6.32: pIC50 (second compound 0.1 µM)
active: viability, T/C (second compound 0.1 µM, first compound 3.16 µM) 0.36% | viability, T/C (second compound 0.1 µM, first compound 10 µM) 0.19% | viability, T/C (second compound 0.316 µM, first compound 1 µM) 2.09% | viability, T/C (second compound 0.316 µM, first compound 3.16 µM) 0.23% | viability, T/C (second compound 0.316 µM, first compound 10 µM) 0.33% | viability, T/C (second compound 1 µM, first compound 1 µM) 2.29% | viability, T/C (second compound 1 µM, first compound 3.16 µM) 0.7% | viability, T/C (second compound 1 µM, first compound 10 µM) 0.32% | viability, T/C [20] 0.3% | viability, T/C [29] 0.33% | viability, T/C (second compound 3.16 µM, first compound 0.316 µM) 0.17% | viability, T/C (second compound 3.16 µM, first compound 1 µM) 0.16% | viability, T/C (second compound 3.16 µM, first compound 3.16 µM) 0.15% | viability, T/C (second compound 3.16 µM, first compound 10 µM) 0.2% | viability, T/C [25] 0.24% | viability, T/C [30] 0.28% | viability, T/C (second compound 10 µM, first compound 0.316 µM) 0.13% | viability, T/C (second compound 10 µM, first compound 1 µM) 0.12% | viability, T/C (second compound 10 µM, first compound 3.16 µM) 0.14% | viability, T/C (second compound 10 µM, first compound 10 µM) 0.29%
6.34: pIC50 (second compound 1 µM)

From PubChem BioAssay AID1963863 (Molecular Pharmacology Branch, DTP, NCI, 2024)
